Laboratory results: patent US9439961B2, “Pharmaceutical composition for treating ischemic events” (Niigata University, priority 2009, dated 2016)

How the values were obtained:
[1] = tested on: cerebral infarction rat model; assay: Cerebral infarction rat model (thrombus injection): infarct and edema volume of TTC-stained cerebral coronal section; type: in vivo, Sprague-Dawley rats
Excerpt: Sprague-Dawley rats (male, 8 weeks old, obtained from Charles River Laboratories Japan, Inc.) were used to produce cerebral infarction rat models.
(§1) In the present examples, a cerebral infarction rat model shown in FIG. 1B was produced in order to realize a state where cerebral hemorrhage concomitantly occurs as a result of administration of a thrombolytic agent after the therapeutic time window of the thrombolytic therapy. A thrombus was formed by coagulating rat's autologous blood and thrombin as a gel in a polyethylene tube catheter having a diameter of 0.35 mm (PE-50, product of Becton, Dickinson and Company). The formed thrombus was left to stand overnight and then cut to have a length of 1 mm Using the catheter, the thrombus was injected from the external carotid artery (ECA) 1 to the middle cerebral artery (MCA) 2 of the rat under anesthesia with halothane at 1% by mass to 1.5% by mass. Thereafter, the thus-treated rat was measured for cerebral blood flow (CBF) using a laser Doppler flowmetry (AFL21, product of ADVANCE Co., Ltd., Tokyo) before and 30 min or 24 hours after injection of the thrombus.
In the thrombolytic therapy for the cerebral infarction rat models, t-PA serving as a thrombolytic agent (alteplase, product of Mitsubishi Tanabe Pharma Corporation) was injected for 30 min to the femoral vein of each cerebral infarction rat model 1 hour or 4 hours after the injection of the thrombus (10 mg/kg, 10% bolus administration and 90% drip infusion).
Twenty-four hours after the injection of the thrombus, halothane was excessively administered to the rats for euthanasia which were then perfused with PBS, to thereby prepare an unfixed cerebral coronal section.
The cerebral coronal section was stained with TTC at 37° C. for 15 min in PBS (pH 7.4) containing a triphenyltetrazolium salt (TTC) at 2% by mass, and then scanned with a scanner (CanoScan™, product of Canon Co.).
The cerebral infarction and the volume of edema were calculated according to Swanson, R. A., et al. (J. Cereb. Blood Flow Metab. (1990) 10:290-293).
(§2) The combined administration of the t-PA and the anti-VEGF antibody was performed as described in Example 2. The effects of the combined administration of the t-PA and the anti-VEGF antibody four hours after the onset of cerebral infarction induced by injection of the thrombus were evaluated by measuring the cerebral infarct volume, edema volume, cerebral hemorrhage volume, and motor function scale of the TTC-stained cerebral coronal section prepared 24 hours after the onset of cerebral infarction induced by injection of the thrombus.
The cerebral infarct volume and the edema volume of the TTC-stained cerebral coronal section were calculated according to Swanson, R. A., et al. (J. Cereb. Blood Flow Metab. (1990) 10:290-293). The statistical significance was validated by ANOVA (analysis of variance), and post hoc comparisons were performed by the Tukey method.

[2] = tested on: cerebral infarction rat model; assay: Motor function scale (5 grades) in cerebral infarction rat model; type: in vivo, Sprague-Dawley rats; conditions: 24 h after onset
[3] = tested on: cerebral infarction rat model; assay: Cerebral hemorrhage volume (hemoglobin concentration, spectrophotometer) in cerebral infarction rat model; type: in vivo, Sprague-Dawley rats; conditions: SU1498 20 mg/kg in DMSO single bolus with t-PA four hours after onset; 24 h after onset; vs t-PA and DMSO; P=0.005 (FIG. 5C)
Excerpt: as §1, with “The formed thrombus was left to stand overnight and then cut to have a length of 1 mm Using the catheter, the thrombus was injected from the external carotid artery (ECA) 1 to the middle cerebral artery (MCA) 2 of the rat under anesthesia with halothane at 1% by mass to 1.5% by mass.” left out, “thrombus. […]” for “thrombus.”
as §2, with “thrombus. […]” for “thrombus.”

[4] = tested on: VEGF; assay: Western blotting of VEGF expression in cerebral infarction rat model; type: in vivo; conditions: t-PA (with control antibody) four hours after onset of cerebral infarction (FIG. 3)
Experimental: In order to suppress or reduce concomitantly occurring cerebral hemorrhage and cerebral infarction exacerbation accompanied with the administration of the t-PA after an acute stage of cerebral infarction in human, 100 μg of rabbit anti-rat VEGF antibody IgG (RB-222, product of Lab Vision-NeoMarkers, hereinafter “anti-VEGF antibody”) was bolus administered together with the t-PA. In the control experiment, 100 μg of rabbit anti-human IgG (R5G10-048, product of OEM Concepts, hereinafter “control antibody”) was bolus administered together with the t-PA.
Using the total cell extract as a sample, western blotting was performed according to the method described in Shimohata, T., et al. (J. Cereb. Blood Flow Metab. (2007) 27:1463-1475).
The VEGF was detected using anti-VEGF antibody (SC-152, product of Santa Cruz Biotechnologies, dilution ratio: 1:200) as a primary antibody, and peroxidase-conjugated anti-rabbit IgG antibody (dilution ratio: 1:10,000) as a secondary antibody.
Also, in order to confirm that the amounts of the protein applied were uniform in all the samples, β-actin was detected by allowing anti-β-actin (SC-1616, product of Santa Cruz Biotechnologies, dilution ratio: 1:2,000) and the above secondary antibody to react on the blotting membrane from which the primary and secondary antibodies had been removed. […]

[5] = t-PA 10 mg/kg i.v. four hours after injection of thrombus, vs t-PA one hour after (FIG. 2C)

| Compound | cerebral infarct volume ([1]; SU1498 20 mg/kg in DMSO single bolus with t-PA four hours after onset, 24 h after onset, vs t-PA and DMSO, n=6 (FIG. 5A)) | edema volume ([1]; SU1498 20 mg/kg in DMSO single bolus with t-PA four hours after onset, 24 h after onset, vs t-PA and DMSO, n=6 (FIG. 5B)) | motor function scale (prognosis) ([2]; SU1498 20 mg/kg with t-PA four hours after onset, vs t-PA and DMSO, n=10 (FIG. 5D)) | cerebral hemorrhage volume (hemoglobin concentration) [3] | area where cerebral infarction occurred [1, 5] | hemorrhage in the area where cerebral infarction occurred [1, 5] | area where cerebral infarction occurred ([1]; t-PA 10 mg/kg i.v. one hour after injection of thrombus, section 24 h after, vs animal receiving no t-PA (FIG. 2B)) | expression level of the VEGF (western blot) [4] | motor function scale (prognosis) ([2]; t-PA and control antibody four hours after onset, vs control antibody only (FIG. 4D)) |
| --- | --- | --- | --- | --- | --- | --- | --- | --- | --- |
| CC(C)c1cc(/C=C(\C#N)C(=O)NCCCc2ccccc2)cc(C(C)C)c1O [SU1498, (E)-3-(3,5-diisopropyl-4-hydroxyphenyl)-2-((3-phenyl-n-propyl)amino-carbonyl)acrylonitrile] | could not reduce | could not reduce | better in prognosis | could reduce | – | – | – | – | – |
| t-PA: t-PA serving as a thrombolytic agent (alteplase, product of Mitsubishi Tanabe Pharma Corporation) | – | – | – | – | enlargement | considerably observed | smaller | considerably increase | worse in prognosis |
